Test results as given in patent US9844577B1, “Medicinal composition for prevention or treatment retinal ischemia” (priority 2017, dated 2017).

Experiments:
Assay in all cases: Retinal protein level by western blot after retinal ischemia
Format in all cases: in vivo, Wistar rats
[1] = tested on: HIF-1α protein; conditions: intravitreal 5 μl 15 min before ischemia: 4 μM Shikonin, 10 μM JIB-04, 100 mg/4 ml Avastin; Vehicle 3.69±0.22
Method: (§1) After anesthesia, rats (200-250 g) were placed in a stereotaxic frame. A high intraocular pressure (HIOP) of 120 mmHg for 60 min was induced by cannulating the anterior chamber of one eye of an ischemic rat with a 30-gauge needle connected to an elevated 0.9% saline reservoir. The ischemic insult was confirmed by the detection of a pale eye fundus. In contrast, one eye of a control rat received a sham procedure where the saline reservoir was not elevated.
(§2) An intake of 1.35 or 2.7 g/kg/day XFZYD (Sun Ten Pharmaceutical CO, Taichung, Taiwan) was given for 7 consecutive days before or after HIOP induced retinal ischemia until the rats were sacrificed. The test rat whose eye was subjected to ischemia was fed with the constant volume (4 ml) of XFZYD or the equal volume of vehicle.
(§3) After anesthesia as described, pupil dilation with 1% tropicamide (Alcon, ZG, Switzerland) and 2.5% phenylephrine (Akorn, Inc., IL, USA) as well as surface anesthesia with 0.5% proparacaine (Alcon, ZG, Switzerland), a 30-gauge needle attached to a 25 μl syringe was used to perform intravitreal injections. In certain instances, intravitreal injections 5 μl of 4 μM Shikolin (Sigma-Aldrich, MO, USA), 10 μM JIB-04 (Sigma-Aldrich, MO, USA), 5 μl of 100 mg/4 ml Avastin (Hoffmann-La Roche, Basel, Switzerland) or of vehicle (an equal volume of dimethyl sulfoxide; J. T. Baker, NJ, USA) were performed on ischemic eyes fifteen minutes before pressure induced retinal ischemia.
(§4) Twenty-four hours after retinal ischemia and pre-/post-ischemia administration of the defined chemicals or after a sham procedure, the rats were sacrificed. The retinas were removed and sonicated in lysis buffer, namely mammalian protein extraction reagent (HyCell, Taipei, Taiwan). […] Journal of Ocular Pharmacology and Therapeutics. 2010; 26(5):421-429; Hsiao-Ming Chao, Min-Jay Chuang, Jorn-Hon Liu, Xiao-Qian Liu, Li-Kang Ho, Wynn H. T. Pan, Xiu-Mei Zhang, Chi-Ming Liu, Shen-Kou Tsai, Chi-Woon Kong, Shou-Dong Lee, Mi-Mi Chen, and Fang-Ping Chao. Baicalein protects against retinal ischemia by antioxidation, antiapoptosis, downregulation of HIF-1α, VEGF, and MMP-9 and upregulation of HO-1. Journal of Ocular Pharmacology and Therapeutics. 29(6): 539-549, 2013). The separated proteins were transferred to a polyvinylidene difluoride (PVDF) membrane (Millipore, MA, USA). The membranes were then blocked for 1 hour at room temperature with 5% fat-free skimmed milk (Fonterra, Taoyuan, Taiwan) in phosphate-buffered saline (PBS). Next, the blots were incubated individually overnight at 4° C. with one of the following primary antibodies, namely, mouse monoclonal anti-β-actin antibody (1:80000, Novusbio, MA, USA), mouse monoclonal anti-VEGF antibody (1:200, Novusbio, MA, USA), mouse monoclonal anti-HIF-1α antibody (1:1000, Abcom, Cambridge, UK), rabbit polyclonal anti-PKM2 antibody (1:600, Abcom, Cambridge, UK) and rabbit monoclonal anti-RBP2 antibody (1:500, Abcom, Cambridge, UK). The blots were then incubated in the secondary antibody, either horseradish peroxidase (HRP)-conjugated goat anti-rabbit or antimouse IgG (1:2000 or 1:10000, Santa Cruz Biotechnology, TX, USA) as appropriate at 37° C. for 1 h. The primary/secondary antibodies were diluted in 5% fat-free skimmed milk. Finally, the membranes were developed using the enhanced chemiluminescent analysis system (HyCell, Taipei, Taiwan), and exposed to an X-ray film (Fujifilm, Tokyo, Japan). Scanning densitometry was used to analyze the amount of each protein present.

[2] = tested on: PKM2 protein; conditions: intravitreal 5 μl 15 min before ischemia: 4 μM Shikonin, 10 μM JIB-04, 100 mg/4 ml Avastin; Vehicle 4.04±0.50
Method: as §1, §2, §3, §4

[3] = tested on: RBP2 protein; conditions: intravitreal 5 μl 15 min before ischemia: 4 μM Shikonin, 10 μM JIB-04, 100 mg/4 ml Avastin; Vehicle 7.77±2.27
Method: as §1, §2, §3, §4

[4] = tested on: VEGF protein; conditions: intravitreal 5 μl 15 min before ischemia: 4 μM Shikonin, 10 μM JIB-04, 100 mg/4 ml Avastin; Vehicle 6.92±1.55
Method: as §1, §2, §3, §4

Row | Compound | ratio of protein expression level of HIF-1α relative to β-actin [1] | ratio of protein expression level of PKM2 relative to β-actin [2] | ratio of protein expression level of RBP2 relative to β-actin [3] | ratio of protein expression level of VEGF relative to β-actin [4]
1 | Avastin: VEGF antibody (Hoffmann-La Roche) | 3.65±0.84 | 3.42±0.88 | 6.00±3.61 | 1.08±0.23
2 | Clc1ccc(N/N=C(\c2ccccc2)c2ccccn2)nc1 [JIB-04] | 2.14±1.11 | 1.67±1.31 | 1.16±0.14 | 1.68±0.46
3 | CC(C)=CC[C@@H](O)C1=CC(=O)c2c(O)ccc(O)c2C1=O [Shikonin] | 1.95±0.76 | 0.61±0.19 | 1.00±0.71 | 1.84±0.60
